# Measurements taken from patent publication US20210363254A1, “PHARMACEUTICAL COMBINATIONS” (Novartis AG, priority 2018, published 2021).
# Like-named read-outs stand apart in the source and are kept apart here.
structure (smiles),measurement,setting,value
"COc1ncc(-c2nc3c(n2C(C)C)[C@H](c2ccc(Cl)cc2)N(c2cc(Cl)cn(C)c2=O)C3=O)c(OC)n1 [HDM201, (S)-5-(5-Chloro-1-methyl-2-oxo-1,2-dihydro-pyridin-3-yl)-6-(4-chloro-phenyl)-2-(2,4-dimethoxy-pyrimidin-5-yl)-1-isopropyl-5,6-dihydro-1H-pyrrolo[3,4-d]imidazol-4-one]","Decreased Appetite, Grade 3/4","1B 150 mg, N=8",0 n (%)
same,"Dehydration, All Grades","1B 150 mg, N=8",0 n (%)
same,"Dehydration, Grade 3/4","1B 150 mg, N=8",0 n (%)
same,"Diarrhoea, All Grades","1B 150 mg, N=8",2 (25.0) n (%)
same,"Diarrhoea, Grade 3/4","1B 150 mg, N=8",0 n (%)
same,"Dry Skin, All Grades","1B 150 mg, N=8",0 n (%)
same,"Dry Skin, Grade 3/4","1B 150 mg, N=8",0 n (%)
same,"Dysgeusia, All Grades","1B 150 mg, N=8",0 n (%)
same,"Dysgeusia, Grade 3/4","1B 150 mg, N=8",0 n (%)
same,"Eye Pain, All Grades","1B 150 mg, N=8",1 (12.5) n (%)
same,"Eye Pain, Grade 3/4","1B 150 mg, N=8",0 n (%)
same,"Fatigue, All Grades","1B 150 mg, N=8",2 (25.0) n (%)
same,"Fatigue, Grade 3/4","1B 150 mg, N=8",1 (12.5) n (%)
same,"Folliculitis, All Grades","1B 150 mg, N=8",1 (12.5) n (%)
same,"Folliculitis, Grade 3/4","1B 150 mg, N=8",0 n (%)
same,"Gamma-Glutamyltransferase Increased, All Grades","1B 150 mg, N=8",1 (12.5) n (%)
same,"Gamma-Glutamyltransferase Increased, Grade 3/4","1B 150 mg, N=8",0 n (%)
same,"Headache, All Grades","1B 150 mg, N=8",1 (12.5) n (%)
same,"Headache, Grade 3/4","1B 150 mg, N=8",0 n (%)
same,"Hyperkalaemia, All Grades","1B 150 mg, N=8",0 n (%)
same,"Hyperkalaemia, Grade 3/4","1B 150 mg, N=8",0 n (%)
same,"Hypocalcaemia, All Grades","1B 150 mg, N=8",0 n (%)
same,"Hypocalcaemia, Grade 3/4","1B 150 mg, N=8",0 n (%)
same,"Influenza Like Illness, All Grades","1B 150 mg, N=8",1 (12.5) n (%)
same,"Influenza Like Illness, Grade 3/4","1B 150 mg, N=8",0 n (%)
same,"Lethargy, All Grades","1B 150 mg, N=8",1 (12.5) n (%)
same,"Lethargy, Grade 3/4","1B 150 mg, N=8",0 n (%)
same,"Leukopenia, All Grades","1B 150 mg, N=8",1 (12.5) n (%)
same,"Leukopenia, Grade 3/4","1B 150 mg, N=8",1 (12.5) n (%)
same,"Lipase Increased, All Grades","1B 150 mg, N=8",2 (25.0) n (%)
same,"Lipase Increased, Grade 3/4","1B 150 mg, N=8",2 (25.0) n (%)
same,"Lymphopenia, All Grades","1B 150 mg, N=8",2 (25.0) n (%)
same,"Lymphopenia, Grade 3/4","1B 150 mg, N=8",1 (12.5) n (%)
same,"Monocytosis, All Grades","1B 150 mg, N=8",0 n (%)
same,"Monocytosis, Grade 3/4","1B 150 mg, N=8",0 n (%)
same,"Musculoskeletal Pain, All Grades","1B 150 mg, N=8",0 n (%)
same,"Musculoskeletal Pain, Grade 3/4","1B 150 mg, N=8",0 n (%)
same,"Myalgia, All Grades","1B 150 mg, N=8",0 n (%)
same,"Myalgia, Grade 3/4","1B 150 mg, N=8",0 n (%)
same,"Nausea, All Grades","1B 150 mg, N=8",4 (50.0) n (%)
same,"Nausea, Grade 3/4","1B 150 mg, N=8",0 n (%)
same,"Neuralgia, All Grades","1B 150 mg, N=8",1 (12.5) n (%)
same,"Neuralgia, Grade 3/4","1B 150 mg, N=8",0 n (%)
same,"Neutropenia, All Grades","1B 150 mg, N=8",4 (50.0) n (%)
same,"Neutropenia, Grade 3/4","1B 150 mg, N=8",3 (37.5) n (%)
same,"Neutrophil Count Decreased, All Grades","1B 150 mg, N=8",3 (37.5) n (%)
same,"Neutrophil Count Decreased, Grade 3/4","1B 150 mg, N=8",2 (25.0) n (%)
same,"Oedema, All Grades","1B 150 mg, N=8",0 n (%)
same,"Oedema, Grade 3/4","1B 150 mg, N=8",0 n (%)
same,"Oral Candidiasis, All Grades","1B 150 mg, N=8",1 (12.5) n (%)
same,"Oral Candidiasis, Grade 3/4","1B 150 mg, N=8",0 n (%)
same,"Platelet Count Decreased, All Grades","1B 150 mg, N=8",1 (12.5) n (%)
same,"Platelet Count Decreased, Grade 3/4","1B 150 mg, N=8",0 n (%)
same,"Pruritus, All Grades","1B 150 mg, N=8",1 (12.5) n (%)
same,"Pruritus, Grade 3/4","1B 150 mg, N=8",0 n (%)
same,"Thrombocytopenia, All Grades","1B 150 mg, N=8",4 (50.0) n (%)
same,"Thrombocytopenia, Grade 3/4","1B 150 mg, N=8",2 (25.0) n (%)
same,"Total, All Grades","1B 150 mg, N=8",7 (87.5) n (%)
same,"Total, Grade 3/4","1B 150 mg, N=8",4 (50.0) n (%)
same,"Vomiting, All Grades","1B 150 mg, N=8",2 (25.0) n (%)
same,"Vomiting, Grade 3/4","1B 150 mg, N=8",0 n (%)
same,"Weight Decreased, All Grades","1B 150 mg, N=8",0 n (%)
same,"Weight Decreased, Grade 3/4","1B 150 mg, N=8",0 n (%)
same,"White Blood Cell Count Decreased, All Grades","1B 150 mg, N=8",1 (12.5) n (%)
same,"White Blood Cell Count Decreased, Grade 3/4","1B 150 mg, N=8",0 n (%)
same,"Abdominal Pain, All Grades","1B 200 mg, N=3",0 n (%)
same,"Abdominal Pain, Grade 3/4","1B 200 mg, N=3",0 n (%)
same,"Alanine Aminotransferase Increased, All Grades","1B 200 mg, N=3",0 n (%)
same,"Alanine Aminotransferase Increased, Grade 3/4","1B 200 mg, N=3",0 n (%)
same,"Alopecia, All Grades","1B 200 mg, N=3",0 n (%)
same,"Alopecia, Grade 3/4","1B 200 mg, N=3",0 n (%)
same,"Amylase Increased, All Grades","1B 200 mg, N=3",1 (33.3) n (%)
same,"Amylase Increased, Grade 3/4","1B 200 mg, N=3",0 n (%)
same,"Anaemia, All Grades","1B 200 mg, N=3",1 (33.3) n (%)
same,"Anaemia, Grade 3/4","1B 200 mg, N=3",0 n (%)
same,"Asthenia, All Grades","1B 200 mg, N=3",0 n (%)
same,"Asthenia, Grade 3/4","1B 200 mg, N=3",0 n (%)
same,"Blood Bilirubin Increased, All Grades","1B 200 mg, N=3",0 n (%)
same,"Blood Bilirubin Increased, Grade 3/4","1B 200 mg, N=3",0 n (%)
same,"Blood Creatine Phosphokinase Increased, All Grades","1B 200 mg, N=3",0 n (%)
same,"Blood Creatine Phosphokinase Increased, Grade 3/4","1B 200 mg, N=3",0 n (%)
same,"Blood Creatinine Increased, All Grades","1B 200 mg, N=3",0 n (%)
same,"Blood Creatinine Increased, Grade 3/4","1B 200 mg, N=3",0 n (%)
same,"Decreased Appetite, All Grades","1B 200 mg, N=3",0 n (%)
same,"Decreased Appetite, Grade 3/4","1B 200 mg, N=3",0 n (%)
same,"Dehydration, All Grades","1B 200 mg, N=3",0 n (%)
same,"Dehydration, Grade 3/4","1B 200 mg, N=3",0 n (%)
same,"Diarrhoea, All Grades","1B 200 mg, N=3",0 n (%)
same,"Diarrhoea, Grade 3/4","1B 200 mg, N=3",0 n (%)
same,"Dry Skin, All Grades","1B 200 mg, N=3",0 n (%)
same,"Dry Skin, Grade 3/4","1B 200 mg, N=3",0 n (%)
same,"Dysgeusia, All Grades","1B 200 mg, N=3",0 n (%)
same,"Dysgeusia, Grade 3/4","1B 200 mg, N=3",0 n (%)
same,"Eye Pain, All Grades","1B 200 mg, N=3",0 n (%)
same,"Eye Pain, Grade 3/4","1B 200 mg, N=3",0 n (%)
same,"Fatigue, All Grades","1B 200 mg, N=3",1 (33.3) n (%)
same,"Fatigue, Grade 3/4","1B 200 mg, N=3",0 n (%)
same,"Folliculitis, All Grades","1B 200 mg, N=3",0 n (%)
same,"Folliculitis, Grade 3/4","1B 200 mg, N=3",0 n (%)
same,"Gamma-Glutamyltransferase Increased, All Grades","1B 200 mg, N=3",0 n (%)
same,"Gamma-Glutamyltransferase Increased, Grade 3/4","1B 200 mg, N=3",0 n (%)
same,"Headache, All Grades","1B 200 mg, N=3",0 n (%)
same,"Headache, Grade 3/4","1B 200 mg, N=3",0 n (%)
same,"Hyperkalaemia, All Grades","1B 200 mg, N=3",0 n (%)
